Earlier results as cited in patent US20060019984A1, “Treatment of diseases with alpha-7nACh receptor full agonists” (Pfizer Inc, priority 2003, published 2006).

Experiments:
[1] = target: T1, 5HT3R (Homo sapiens, UniProt P46098); conditions: general statement, no method or value given
T1 sequence (P46098 24-478): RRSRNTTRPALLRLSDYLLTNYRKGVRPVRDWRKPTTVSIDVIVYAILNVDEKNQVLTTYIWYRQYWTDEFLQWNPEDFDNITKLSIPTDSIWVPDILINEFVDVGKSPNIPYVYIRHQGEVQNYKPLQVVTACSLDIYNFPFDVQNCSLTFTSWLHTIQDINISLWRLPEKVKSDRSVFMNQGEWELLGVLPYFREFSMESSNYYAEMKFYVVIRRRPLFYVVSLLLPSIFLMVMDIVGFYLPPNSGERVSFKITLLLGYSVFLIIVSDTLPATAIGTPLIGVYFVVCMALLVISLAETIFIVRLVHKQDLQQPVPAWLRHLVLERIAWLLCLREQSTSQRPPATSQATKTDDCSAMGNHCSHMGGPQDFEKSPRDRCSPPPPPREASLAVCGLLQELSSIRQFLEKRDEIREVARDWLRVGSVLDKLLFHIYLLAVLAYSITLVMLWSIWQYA

[2] = target: α7 nAChR (Homo sapiens, UniProt P36544); conditions: general statement, no method or value given
Chain of α7 nAChR (P36544 23-502): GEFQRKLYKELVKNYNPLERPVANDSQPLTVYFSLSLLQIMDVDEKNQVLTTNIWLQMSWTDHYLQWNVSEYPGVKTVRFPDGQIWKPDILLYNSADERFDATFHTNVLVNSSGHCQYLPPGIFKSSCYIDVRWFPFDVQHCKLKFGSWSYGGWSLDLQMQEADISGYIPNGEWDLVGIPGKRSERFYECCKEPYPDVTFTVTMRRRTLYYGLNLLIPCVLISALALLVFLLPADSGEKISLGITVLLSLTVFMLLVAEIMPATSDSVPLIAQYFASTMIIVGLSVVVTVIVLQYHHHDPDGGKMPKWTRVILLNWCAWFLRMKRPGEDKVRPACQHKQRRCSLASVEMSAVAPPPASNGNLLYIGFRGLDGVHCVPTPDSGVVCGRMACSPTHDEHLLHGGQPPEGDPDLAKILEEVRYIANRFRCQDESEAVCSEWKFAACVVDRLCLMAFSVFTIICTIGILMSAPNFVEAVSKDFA

| Structure (SMILES) | activity at the 5HT3R [1] | activity at the α7 nAChR [2] |
| --- | --- | --- |
| COc1ccc(/C=C2\CCCN=C2c2cccnc2)c(OC)c1 [GTS-21] | little activity |  |
| Cc1nccn1CC1CCc2c(c3ccccc3n2C)C1=O (centres unmarked) [Ondansetron] |  | little activity |
